target: T1, Mas-related G-protein coupled receptor member X2 (Homo sapiens, UniProt Q96LB1); experiment: MRGPRX2 Activity Assay
T1 sequence (Q96LB1 whole entry): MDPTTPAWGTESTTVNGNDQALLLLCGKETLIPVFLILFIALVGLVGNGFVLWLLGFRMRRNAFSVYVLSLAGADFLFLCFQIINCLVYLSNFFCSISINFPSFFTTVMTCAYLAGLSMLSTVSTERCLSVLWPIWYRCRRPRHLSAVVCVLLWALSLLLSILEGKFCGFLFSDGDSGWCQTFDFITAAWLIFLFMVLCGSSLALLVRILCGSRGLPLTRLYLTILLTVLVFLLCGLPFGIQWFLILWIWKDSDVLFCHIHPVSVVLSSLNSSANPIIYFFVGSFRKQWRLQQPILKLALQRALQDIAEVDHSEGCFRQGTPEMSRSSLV
Experimental: FlpIn TRex-MRGPRX2-HEK293 cells (herein TRex-MRPGRX2-HEK) stably transfected to express human MRGPRX2 were maintained at 37 °C with 5% CO2 and grown in DMEM supplemented with 10% FBS, 1% L-Glutamate, 1% penicillin/streptomycin, 100ug/mL Hygromycin B, and 15 µg/mL Blasticidin. GOI (MRGPRX2) expression was induced with 100ng/mL of Doxycycline 18-24 hours prior to experiment, in flask. On the day of experiment, cells were lifted with TripLE Express and seeded in 384-well white walled opaque bottomed, assay plates, at 8,000 cells per well in 5 µL freshly made assay buffer (HBSS, 20 mM HEPES, 0.1% BSA and 10 mM LiCl). Compounds solubilized in 100% DMSO at 30 mM were serially diluted (1:4) first in 100% DMSO, and an intermediate plate of assay buffer was used to establish a final top concentration of 30 µM (in assay plate). Final DMSO concentration was kept constant at 1% across assay plates. Cortistatin-14, at 30 mM stock concentration was solubilized in HBSS + 0.1% BSA, stored at -20°C in 5 µL aliquots and discarded after one freeze-thaw cycle. […] Antagonist equilibrium was established with 30 minutes preincubation, followed by no wash, direct addition, and stimulation of agonist for 1 hour at 37 °C / 5% CO2. IP-1 standards and HTRF detection reagents were added according to the IP-one Gq kit protocol purchased from CisBio (part number 62IPAPEJ). The plate was read on an EnVision XCite plate reader. The HTRF ratio was then calculated from raw data (channel1/channel2 ×10,000) and analyzed using either GraphPad Prism or a custom Python script to calculate IC50 using Log[Antagonist] vs. response (4 parameter) nonlinear regression.

IC50 [nM]	SMILES
635	C[C@@H](C(=O)Nc1nc2cc3c(cc2s1)OC(F)(F)O3)N1CCC(F)(F)[C@H](n2ccc(=O)[nH]c2=O)C1 [WO2025064535, Compound 63]
9010	C[C@@H](C(=O)Nc1nc2cc3c(cc2s1)OC(F)(F)O3)N1CCC(F)(F)[C@H](c2c[nH]c(=O)c([C@H](N)C(F)F)c2)C1 [WO2025064535, Compound 23]
303	C[C@@H](C(=O)Nc1nc2cc3c(cc2s1)OC(F)(F)O3)N1CCC(F)(F)[C@H](c2c[nH]c(=O)c(CN3CCOCC3)c2)C1 [WO2025064535, Compound 67]
30	C[C@@H](C(=O)Nc1nc2cc3c(cc2s1)OC(F)(F)O3)N1CCC(F)(F)[C@@H](c2cc[n+]([O-])c([C@H](O)CO)c2)C1 [WO2025064535, Compound 53]
18	C[C@@H](C(=O)Nc1nc2cc3c(cc2s1)OC(F)(F)O3)N1CCC(F)(F)[C@@H](c2c[nH]c(=O)c([C@H](N)C(F)F)c2)C1 [WO2025064535, Compound 21]
32	C[C@@H](C(=O)Nc1nc2cc3c(cc2s1)OC(F)(F)O3)N1CCC(F)(F)[C@H](c2cc[n+]([O-])c(CN)c2)C1 [WO2025064535, Compound 65]
> 30000	C[C@@H](C(=O)Nc1nc2cc3c(cc2s1)CCC3)N1CCC(F)(F)[C@@H](c2c[nH]c(=O)c(CO)c2)C1 [WO2025064535, Compound 106]
> 30000	C[C@@H](C(=O)Nc1nc2cc3c(cc2s1)OC(F)(F)O3)N1CCO[C@H](c2ccc(=O)[nH]c2)C1 [WO2025064535, Compound 4]
> 30000	C[C@@H](C(=O)Nc1nc2cc3c(cc2s1)OC(F)(F)O3)N1CCC(F)(F)[C@@H](c2c[nH]c(=O)c(CN3CCC(F)(F)CC3)c2)C1 [WO2025064535, Compound 68]
31	C[C@@H](C(=O)Nc1nc2cc3c(cc2s1)OC(F)(F)O3)N1CCC(F)(F)[C@@H](c2ncn[nH]2)C1 [WO2025064535, Compound 104]
> 30000	C[C@@H](C(=O)Nc1nc2cc3c(cc2s1)OC(F)(F)O3)N1CCC(F)(F)[C@@H](c2cc[n+]([O-])c([C@@H](O)CO)c2)C1 [WO2025064535, Compound 51]
22	C[C@@H](C(=O)Nc1nc2cc3c(cc2s1)OC(F)(F)O3)N1CCC(F)(F)[C@H](c2c[nH]c(=O)c([C@H](O)CO)c2)C1 [WO2025064535, Compound 45]
2110	C[C@@H](C(=O)Nc1nc2cc3c(cc2s1)OC(F)(F)O3)N1CCC(F)(F)[C@@H](c2c[nH]c(=O)c(CN)c2)C1 [WO2025064535, Compound 82]
49	C[C@@H](C(=O)Nc1nc2cc3c(cc2s1)OC(F)(F)O3)N1CCO[C@@H](c2ccc(=O)[nH]c2)C1 [WO2025064535, Compound 3]
> 30000	C[C@@H](C(=O)Nc1nc2cc3c(cc2s1)OC(F)(F)O3)N1CCC(F)(F)[C@@H](n2ccc(=O)[nH]c2=O)C1 [WO2025064535, Compound 62]
> 30000	C[C@H](C(=O)Nc1nc2cc3c(cc2s1)OC(F)(F)O3)N1CCC(F)(F)[C@H](c2c[nH]c(=O)c(CN)c2)C1 [WO2025064535, Compound 83]
222	C[C@@H](C(=O)Nc1nc2cc3c(cc2s1)OC(F)(F)O3)N1CCC[C@H](c2cc[n+]([O-])cc2)C1 [WO2025064535, Compound 50]
17	C[C@@H](C(=O)Nc1nc2cc3c(cc2s1)OC(F)(F)O3)N1CCC(F)(F)[C@@H](c2c[nH]c(=O)c([C@@H](N)C(F)F)c2)C1 [WO2025064535, Compound 22]
1160	C[C@H](C(=O)Nc1nc2cc3c(cc2s1)OC(F)(F)O3)N1CCC(F)(F)[C@@H](c2c[nH]c(=O)c(CN)c2)C1 [WO2025064535, Compound 84]
196	C[C@@H](C(=O)Nc1nc2cc3c(cc2s1)OCO3)N1CCC(F)(F)[C@@H](c2cc[n+]([O-])cc2)C1 [WO2025064535, Compound 80]
> 30000	C[C@@H](C(=O)Nc1nc2cc3c(cc2s1)OC(F)(F)O3)N1CCC(F)(F)[C@@H](c2c[nH]c(=O)c(CN3CCOCC3)c2)C1 [WO2025064535, Compound 66]
